# Source: patent publication US12109207B2, “Methods of using 4(1H)-quinolone derivatives” (Academia Sinica, priority 2019, dated 2024)
# Key:
# Ovcar-3 = assay: Cell cytotoxicity assay (MTS), Ovcar-3; assay type: cell-based; conditions: Homo sapiens
# Method: (§1) Cells were seeded into the wells of 96-well plates (2000 cells/well). After an overnight culture, the cells were treated with different concentrations of a compound for 72 h. The CellTiter 96 AQueous one-solution cell proliferation assay (MTS) reagent was used to determine cytotoxicity. After treatment with a compound, 20 μL of the MTS reagent was added to each well and the plates were incubated at 37° C. for 1-4 h. Next, the absorbance at 490 nm of the culture medium in each well was determined using a VersaMax microplate reader (Molecular Devices).
# SAS = assay: Cell cytotoxicity assay (MTS), SAS; assay type: cell-based; conditions: Homo sapiens
# Method: as §1
# A549 = assay: Cell cytotoxicity assay (MTS), A549; assay type: cell-based; conditions: Homo sapiens, A549, 72 h
# Method: as §1
# Colon205 = assay: Cell cytotoxicity assay (MTS), Colon205; assay type: cell-based; conditions: Homo sapiens
# Method: as §1
# HDQP1 = assay: Cell cytotoxicity assay, HDQP1; assay type: cell-based; conditions: Homo sapiens, HDQ-P1; TNBC cell line HDQP1
# Method: as §1
# CEM/VBL = assay: Cell cytotoxicity assay (MTS), CEM/VBL; assay type: cell-based, human; conditions: CEM/VBL vs CCRF-CEM
# Method: as §1
# HFB cells = assay: Pro-apoptotic protein immunoblotting, HFB; assay type: cell-based, human; conditions: 24 to 72 h, normal HFB cells
# Method: The cells were harvested and lysed in RIPA buffer (20 mM Tris-HCl, 150 mM NaCl, 1 mM Na2EDTA, 1% sodium deoxycholate, 1% IGEPAL CA-630, 0.1% SDS, pH 7.5) with protease inhibitors (Roche). Protein concentration was measured by the BCA assay. For immunoprecipitation, protein extracts were incubated with mag-beads-AS1712 or mag-beads-control at 4° C. overnight and then washed five times with PBS before immunoblotting. For immunoblotting, equivalent amounts of denatured proteins were separated through SDS-PAGE gels and then transferred to PVDF membranes (Millipore), which were each blocked with 5% nonfat milk in PBS and 0.1% Tween-20 (Sigma Aldrich) for 1 h. Then each membrane was incubated with a primary antibody overnight at 4° C., followed by incubation with a horseradish peroxidase conjugated secondary antibody for 1 h at room temperature. The signal was visualized by enhanced chemiluminescence detection, and images were acquired using a BioSpectrum Imaging System (UVP).
# SKOV-3 = assay: Cell cytotoxicity assay (MTS), SKOV-3; assay type: cell-based; conditions: Homo sapiens, SK-OV-3
# Method: as §1
# [1] = biological target: T1, purified centrosomes and tubulin (Sus scrofa, UniProt P02554); assay: In vitro microtubule nucleation assay; assay type: biochemical, porcine
# T1 construct: purchased Cytoskeleton
# Method: Purified centrosomes were incubated with or without AS1712 and with porcine tubulin (Cytoskeleton) in 80 mM PIPES, 1 mM MgCl2, 1 mM EGTA, and 1 mM GTP, pH 6.8 for 8 min at 37° C. Microtubule asters were fixed in 1% glutaraldehyde, sedimented onto acid-treated coverslips, and finally subjected to immunofluorescence with anti-α-tubulin. The fiber lengths of the microtubule asters were measured using MetaMorph image analysis software (n=20/group).
# HDQP1/TAX = assay: Cell cytotoxicity assay, HDQP1/TAX; assay type: cell-based, human
# Method: as §1
# CL1-0 and H1975 cells [2] = assay: Cell cycle analysis (flow cytometry); assay type: cell-based, human; conditions: 24 h, propidium iodide
# Method: After treatment, cells were trypsinized and fixed in ice-cold 70% ethanol overnight. Fixed cells were washed with PBS and stained with 0.5 mL of a propidium iodide (10 μg/mL)/RNase (20 μg/mL) solution for 30 minutes. The cellular DNA content was analyzed with a FACSCanto flow cytometer (Becton Dickinson).
# PC-3 = assay: Cell cytotoxicity assay (MTS), PC-3; assay type: cell-based; conditions: Homo sapiens
# Method: as §1
# [3] = system: normal bronchial epithelial (NBE) cells; assay: Cell cytotoxicity assay (MTS), normal bronchial epithelial cells; assay type: cell-based; conditions: Homo sapiens, normal cell line NBE (printed NEB in Table 2)
# Method: as §1
# CCRF-CEM = assay: Cell cytotoxicity assay (MTS), CCRF-CEM; assay type: cell-based; conditions: Homo sapiens
# Method: as §1
# tubulin = tubulin (Sus scrofa, UniProt P02554); assay: Binding affinity assay (surface plasmon resonance); conditions: steady-state model, 25° C.; read-out: dissociation constant (KD) for the tubulin-AS1712 complex
# Method: Surface plasmon resonance technology was used to analyze the binding affinity of AS1712 for tubulin. A Series S Sensor Chip SA was conditioned with three consecutive 1-min injections of 1 M NaCl in 50 mM NaOH, and then 50 μg/mL biotin-tubulin (Cytoskeleton) was immobilized onto the sensor chip surface in a Biacore T200 system (GE Healthcare) to attain 3,000 resonance units. One flow cell on the chip was left free to serve as the negative control. Biocytin (Sigma Aldrich) was used to block any remaining unmodified streptavidin sites. Different concentrations of AS1712 in 10 mM HEPES, 150 mM NaCl, 3 mMEDTA, and 0.05% surfactant P20, pH 7.4 were separately injected over the sensor chip surface to measure the association and dissociation of AS1712 and tubulin at 25° C. The value of KD was calculated using the steady-state fitting mode in Biacore T200 Evaluation Software.
# 37T = assay: Cell cytotoxicity assay (MTS), 37T; assay type: cell-based; conditions: Homo sapiens, 72 h
# Method: as §1
# IGR-OV1 = assay: Cell cytotoxicity assay (MTS), IGR-OV1; assay type: cell-based; conditions: Homo sapiens, IGROV-1
# Method: as §1
# CL1-0 and H1975 cells [4] = assay: Colony formation assay; assay type: cell-based, human; conditions: 12.5-200 nM, 14 days
# Method: Cells were seeded into the wells of six-well plates (1000 cells/well). After overnight culture, the cells were treated with various concentrations of AS1712 for 2 weeks. Then, the colonies in each well were fixed with 3.7% paraformaldehyde, stained with 0.04% crystal violet, and dissolved in 1 ml DMSO. The absorbance at 590 nm of each DMSO solution was read using the VersaMax microplate reader.
# [5] = system: A549, CL1-0, PC9, and H1975; assay: MTS assay, non-small cell lung cancer cell lines; assay type: cell-based; conditions: Homo sapiens; A549, CL1-0, PC9, H1975; 72 h MTS; read-out: IC50 values for the affected cell lines
# Method: as §1
# Du-145 = assay: Cell cytotoxicity assay (MTS), Du-145; assay type: cell-based; conditions: Homo sapiens
# Method: as §1
# tubulin, sequence (P02554 whole entry): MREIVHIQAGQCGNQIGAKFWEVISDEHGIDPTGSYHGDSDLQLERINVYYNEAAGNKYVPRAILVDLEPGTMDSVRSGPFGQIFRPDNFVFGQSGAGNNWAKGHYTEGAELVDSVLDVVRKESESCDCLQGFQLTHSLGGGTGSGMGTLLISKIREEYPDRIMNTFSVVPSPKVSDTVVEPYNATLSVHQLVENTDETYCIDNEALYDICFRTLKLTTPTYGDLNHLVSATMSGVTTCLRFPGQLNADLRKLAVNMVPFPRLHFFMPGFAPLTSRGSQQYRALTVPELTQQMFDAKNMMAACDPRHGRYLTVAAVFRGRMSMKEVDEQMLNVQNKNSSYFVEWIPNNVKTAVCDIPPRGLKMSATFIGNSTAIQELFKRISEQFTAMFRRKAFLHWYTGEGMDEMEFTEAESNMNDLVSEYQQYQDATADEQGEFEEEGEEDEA
# tubulin, sequence (P02550 whole entry partner): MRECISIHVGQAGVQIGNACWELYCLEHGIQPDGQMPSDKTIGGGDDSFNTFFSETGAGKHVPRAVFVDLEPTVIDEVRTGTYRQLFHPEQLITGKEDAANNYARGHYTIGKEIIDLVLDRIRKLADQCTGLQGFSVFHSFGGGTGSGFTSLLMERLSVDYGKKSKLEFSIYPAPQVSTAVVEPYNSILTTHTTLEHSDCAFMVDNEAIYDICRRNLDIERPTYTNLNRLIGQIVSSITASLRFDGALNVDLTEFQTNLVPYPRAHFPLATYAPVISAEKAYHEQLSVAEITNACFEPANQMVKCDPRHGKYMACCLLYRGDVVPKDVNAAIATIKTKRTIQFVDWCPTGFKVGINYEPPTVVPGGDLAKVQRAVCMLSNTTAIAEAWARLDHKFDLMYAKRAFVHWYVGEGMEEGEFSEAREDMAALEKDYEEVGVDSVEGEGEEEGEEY
# T1 sequence (P02554 whole entry): as the sequence (P02554 whole entry) above
# T1 sequence (P02550 whole entry partner): as the sequence (P02550 whole entry partner) above
smiles,measurement,setting,value
"CCOC(=O)c1ccc2[nH]c(-c3ccccc3)cc(=O)c2c1 [AS1712, Ethyl 4-oxo-2-phenyl-1,4-dihydroquinoline-6-carboxylate]",IC50,Ovcar-3,28 ± 1.08 nM
same,IC50,SAS,78 ± 10.4 nM
same,IC50,A549,20 ± 0.98 nM
same,IC50,Colon205,57 ± 5.17 nM
same,IC50,HDQP1,68 ± 5.38 nM
same,"RF, resistance factor (IC50 in resistant cell line/IC50 in parent cell line)",CEM/VBL,0.97
same,PARP and caspase-3,HFB cells,not affected
same,IC50,SKOV-3,50 ± 0.32 nM
same,formation of microtubule asters from the centrosome,[1],substantially inhibited
same,"RF, resistance factor (IC50 in resistant cell line/IC50 in parent cell line)",HDQP1/TAX; HDQP1/TAX vs HDQP1,0.92
same,IC50,"HDQP1/TAX; Homo sapiens, HDQ-P1, Paclitaxel-resistant subline",63 ± 16.3 nM
same,sub-G1 and G2/M-phase population,CL1-0 and H1975 cells [2],increased
same,IC50,PC-3,45 ± 1.77 nM
same,IC50,[3],> 10000 nM
same,IC50,CCRF-CEM,45 ± 0.45 nM
same,Kd,tubulin,13800 nM
same,IC50,37T,34 ± 2.99 nM
same,IC50,IGR-OV1,84 ± 2.07 nM
same,colony-forming abilities,CL1-0 and H1975 cells [4],suppressed in a dose-dependent manner
same,IC50,[5],16 to 33 nM
same,IC50,Du-145,47 ± 1.28 nM
